Columns and labels:
Format in all cases: physicochemical
[1] = Carr index (compressibility index), powder flowability; settings: for Compressibility (Carr Index): calculated from bulk and tapped density; for Flowability (type of flow according to Table 1): classification by Carr index / Hausner ratio
Procedure: The Carr index, also called Carr's index or compressibility index, is calculated according to the following formula: Free flowing powders have smaller values of the Carr index than poor flowing powders. In general, a Carr index greater than 25 is considered to be an indication of poor flowability, and below 15, of good flowability. The relationship between Carr index and/or Hausner ratio with powder flowability is well recognized in the art, for example, as disclosed by M. E. Aulton, in “Powder flow”, chapter 12 of the well-recognized reference book in pharmaceutical technology “Aulton's Pharmaceutics. The design and manufacture of medicines”, Fifth Edition 2018, M. E. Aulton and K. M. G. Taylor, Editors, Elsevier Ltd, as summarized in Table 1: Carr index was calculated from the bulk and tapped density measured values, using the following formula: […]

[2] = Bulk density (PT-SV100 Scott Volumeter); settings: after roller compaction vs starting non-compacted quercetin
Source text: The bulk density, also called apparent density, can be defined as the ratio of the mass to the volume of an untapped powder sample, as “poured”. The bulk density is given in grams per millilitre (g/ml) and is typically calculated by “pouring” a known mass of powder into a graduated cylinder. Bulk density and tapped density can be measured according to the method disclosed in the European Pharmacopoeia section 2.9.34 (Bulk density and tapped density of powders), for example, the bulk density may be measured using the PT-SV100 Scott Volumeter and the tapped density may be measured using the PT-TD200 Tap Density Tester (Pharma Test Apparatebau AG, Germany). The bulk density was measured using a PT-SV100 Scott Volumeter (Pharma Test) and the tapped density was measured using a PT-TD200 Tap Density Tester (Pharma Test).

[3] = Angle of repose; settings: tan^-1 (height/radius) of cone after pouring
Source text: The “angle of repose” is another parameter for indirectly quantifying powder flowability. It is the angle at which a material will rest on a stationary heap, specifically, is the angle formed by the heap slope and the horizontal plane. It may be calculated by different methods, commonly, just pouring the material on a flat surface. It also can be calculated as “drained angle of repose”, as the angle measured on the internal conical face of a material which has been formed when drained from an orifice of a flat-bottomed container to the horizontal. A dynamic angle of repose can also be used, which is the angle to the horizontal of the free surface formed in a relatively slowly rotating drum (Aulton, op. cit., pg. 197). In this case, the lower the value of the angle of repose, the higher the flowability of the material. It is generally considered that an angle of repose higher than 45 correlates with poor flowability, whereas an angle of repose under 30 correlates with excellent flowability. The angle of repose was determined by measuring the radius and the height of the cone formed after pouring the powder, using the formula tan^−1 (height/radius).

[4] = Hausner ratio, powder flowability; settings: calculated from bulk and tapped density
Procedure: Hausner ratio is also predictive of powder flow, and is calculated according to the following formula: In this case, a Hausner ratio greater than 1.34 is generally considered to be an indication of poor flowability. The relationship between Carr index and/or Hausner ratio with powder flowability is well recognized in the art, for example, as disclosed by M. E. Aulton, in “Powder flow”, chapter 12 of the well-recognized reference book in pharmaceutical technology “Aulton's Pharmaceutics. The design and manufacture of medicines”, Fifth Edition 2018, M. E. Aulton and K. M. G. Taylor, Editors, Elsevier Ltd, as summarized in Table 1: Hausner ratio was also calculated using bulk and tapped density values, according to the following formula: […]

[5] = Tapped density (PT-TD200 Tap Density Tester); settings: after mechanical tapping
Procedure: On the other hand, tapped density, also called compacted density, of a powder is the ratio of the mass of the powder to the volume occupied by the powder after it has been tapped for a defined period of time. Tapped density is measured by first gently introducing a known sample mass into a graduated cylinder and carefully levelling the powder without compacting it. The cylinder is then mechanically tapped by raising the cylinder and allowing it to drop under its own weight using a suitable mechanical tapped density tester that provides a suitable fixed drop distance and nominal drop rate Bulk density and tapped density can be measured according to the method disclosed in the European Pharmacopoeia section 2.9.34 (Bulk density and tapped density of powders), for example, the bulk density may be measured using the PT-SV100 Scott Volumeter and the tapped density may be measured using the PT-TD200 Tap Density Tester (Pharma Test Apparatebau AG, Germany). The bulk density was measured using a PT-SV100 Scott Volumeter (Pharma Test) and the tapped density was measured using a PT-TD200 Tap Density Tester (Pharma Test).

[6] = Solubility compared to non-compacted quercetin; settings: compared to standard
Source text: It is advantageous, as the poor solubility of quercetin is one of the drawbacks of this substance, as it impairs its biological availability and, consequently, its therapeutic activity.

| Compressibility (Carr Index) [1] | Flowability (type of flow according to Table 1) [1] | Increase of bulk density [2] | Angle of repose [3] | Hausner ratio [4] | Tapped density [5] | Solubility [6] | SMILES |
| --- | --- | --- | --- | --- | --- | --- | --- |
| 8.45 | excellent | about 200% | 25-30° | 1.09 | 0.71 g/mL | improved | O=c1c(O)c(-c2ccc(O)c(O)c2)oc2cc(O)cc(O)c12 [Compacted quercetin, 3,3′,4′,5,7-pentahydroxyflavone] |
| 52.27 | very, very poor |  | >45° | 2.10 | 0.44 g/mL |  | O=c1c(O)c(-c2ccc(O)c(O)c2)oc2cc(O)cc(O)c12 [Non-compacted quercetin, 3,3′,4′,5,7-pentahydroxyflavone, reference compound] |

— patent US12516034B2, “Process for preparing high-density quercetin” (TRADICHEM INDUSTRIAL SERVICES, S.L., priority 2022, dated 2026)
